Results from patent US20210094922A1, “Dyes for Analysis of Soluble Protein Aggregates or Misfolded Protein Oligomers” (The Penn State Research Foundation, priority 2018, published 2021).
Entries after “also recorded” stand apart in the source; their conditions may differ.

Experiments:
[1] = target: T1, SOD1-A4V-Halo (Homo sapiens, UniProt P00441, A5V); test: Two-color imaging of SOD1-A4V-Halo in HEK293T cells under MG132; type: cell-based; set-up: expressed in transfected cells; host or cells: HEK293T; conditions: 4 and 5 both at 0.5 μM, 5 μM MG132 for 8 h
Excerpt: (§1) (B-C) Excitation and emission spectra of 4 (with misfolded oligomers of SOD1-A4V-Halo) and 5 (with insoluble aggregates of SOD1-A4V-Halo).
(§2) Combination of 4 and 5 enables a two-color imaging strategy to differentiate insoluble aggregates from soluble oligomers. The inventors carried out live cell imaging experiments, wherein 4 or 5 was used to visualize aggregation of POI-Halo fusion proteins in HEK293T cells. […] To this end, the inventors labeled HEK293T cells expressing SOD1-A4V-Halo simultaneously with 4 and 5 (both at 0.5 μM) for 24 h and treated cells with 5 μM MG132 for 8 h. […] The inventors further carried out experiments using Htt-PolyQ with 110 glutamine repeats (Htt-110Q-Halo).
Target sequence in this assay (P00441 with tags, fused parts or gaps A5V limits assumed): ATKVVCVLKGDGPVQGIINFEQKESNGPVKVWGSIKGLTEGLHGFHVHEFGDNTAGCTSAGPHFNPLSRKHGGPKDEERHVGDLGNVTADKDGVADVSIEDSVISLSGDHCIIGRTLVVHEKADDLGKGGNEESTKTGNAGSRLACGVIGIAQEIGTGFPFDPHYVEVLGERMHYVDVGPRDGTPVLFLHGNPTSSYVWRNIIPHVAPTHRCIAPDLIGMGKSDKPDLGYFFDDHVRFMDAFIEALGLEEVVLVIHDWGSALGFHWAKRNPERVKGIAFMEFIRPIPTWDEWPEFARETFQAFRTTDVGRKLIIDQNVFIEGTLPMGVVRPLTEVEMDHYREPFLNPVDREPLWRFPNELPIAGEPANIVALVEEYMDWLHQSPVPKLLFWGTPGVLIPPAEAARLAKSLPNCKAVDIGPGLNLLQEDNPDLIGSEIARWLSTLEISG

[2] = target: SOD1(V31A)-Halo (Rhodococcus rhodochrous, UniProt P0A3G2, A155T/A167V/A172T/A224E/C128F/C176G/D78G/E160K/E257K/H272N/K175M/K195N/L47V/L88M/N227D/P291S/S58T/T264A/Y273L/Y87F); test: AggTag imaging of NaAsO2-induced SOD1(V31A)-Halo aggregation in HEK293T cells; type: cell-based, human; set-up: expressed in transfected cells; host or cells: HEK293T
Sequence of SOD1(V31A)-Halo (Rhodococcus rhodochrous, UniProt P0A3G2, A155T/A167V/A172T/A224E/C128F/C176G/D78G/E160K/E257K/H272N/K175M/K195N/L47V/L88M/N227D/P291S/S58T/T264A/Y273L/Y87F) (P0A3G2 other isoform, or with tags, fused parts or gaps with the stated changes): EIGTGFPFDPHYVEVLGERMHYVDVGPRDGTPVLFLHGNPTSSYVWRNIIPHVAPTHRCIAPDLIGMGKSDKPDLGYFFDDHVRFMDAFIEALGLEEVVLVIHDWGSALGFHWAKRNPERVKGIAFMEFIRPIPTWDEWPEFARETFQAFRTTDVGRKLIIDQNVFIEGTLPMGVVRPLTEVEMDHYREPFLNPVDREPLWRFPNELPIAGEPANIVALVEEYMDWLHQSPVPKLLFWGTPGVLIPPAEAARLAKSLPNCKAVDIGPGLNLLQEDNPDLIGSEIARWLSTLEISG
Protocol: (§3) During protein expression, medium is supplemented with 1 μM of coumarin ligand and 1 μM of 4 to enable a simultaneous dual-probe labeling to Halo-Tag. Note: Halo-Tag locates in both cytoplasm and nucleus. Blue: fluorescence from the Halo-Tag⋅coumarin conjugate. Red: fluorescence from the Halo-Tag-4 conjugate. Scale bar: 10 μm.
(§4) Confocal microscope imaging. The HEK293T cells were seeded at 25% confluency 24 h prior to transfection in poly-D-lysine coated 35 mm glass bottom dishes (MatTek Corporation). Cells were grown in DMEM media supplemented with 10% FBS and Penicillin-Streptomycin antibiotics until they reached 50-60% confluency. Transfection was carried out using X-tremeGene™ 9 DNA transfection reagent (Roche) according to the manufacturer's instructions. Proteins were expressed for 24 h prior to analyses. To label proteins with Halo-Tag fusion, protein expression was carried out in the presence of 1 μM 4 or 1 μM TMR Halo-Tag ligand to form covalent conjugate with the Halo-Tag domain. For a dual-probe labeling scheme, 1 μM 4 and 1 μM coumarin Halo-Tag ligand to simultaneously form covalent conjugate with the Halo-Tag domain.
(§5) HEK293T cultures were seeded at 25% confluency 24 h prior to transfection in 12-well plate for time dependent fluorescence plate reader analysis or 35 mm glass bottom culture dishes (Poly-d-lysine coated, MatTek Corporation). Cells were grown in DMEM medium supplemented with 10% FBS and penicillin-streptomycin antibiotics until they reached 50-60% confluency. Transfection was performed using X-tremeGene™ 9 DNA transfection reagent (Roche). After 24 h of protein expression and co-translational labeling, medium was replaced with fresh DMEM to diffuse out unbound ligands. After 30 min, media was replaced by fresh DMEM medium containing DMSO vehicle or NaAsO2 (50 μM). […] At indicated time points, fluorescence reading was obtained using a Tecan M1000Pro fluorescence plate reader. Fluorescence intensity was recorded at Ex=530 nm/Em=600 nm for 3 and Ex=450 nm/Em=480 nm for ThT. […] Fluorescence of 3 was measured at Ex=530 nm/Em=600 nm.

[3] = target: SOD1(V31A)-Halo (UniProt P00441+P0A3G2, A155T/A167V/A172T/A224E/C128F/C176G/D78G/E160K/E257K/H272N/K175M/K195N/L47V/L88M/N227D/S58T/T264A/V32A/Y273L/Y87F); test: as above; type: cell-based, human; set-up: expressed in transfected cells; host or cells: HEK293T; conditions: NaAsO2
Sequence of SOD1(V31A)-Halo (UniProt P00441+P0A3G2, A155T/A167V/A172T/A224E/C128F/C176G/D78G/E160K/E257K/H272N/K175M/K195N/L47V/L88M/N227D/S58T/T264A/V32A/Y273L/Y87F) (P00441+P0A3G2 fused with the stated changes): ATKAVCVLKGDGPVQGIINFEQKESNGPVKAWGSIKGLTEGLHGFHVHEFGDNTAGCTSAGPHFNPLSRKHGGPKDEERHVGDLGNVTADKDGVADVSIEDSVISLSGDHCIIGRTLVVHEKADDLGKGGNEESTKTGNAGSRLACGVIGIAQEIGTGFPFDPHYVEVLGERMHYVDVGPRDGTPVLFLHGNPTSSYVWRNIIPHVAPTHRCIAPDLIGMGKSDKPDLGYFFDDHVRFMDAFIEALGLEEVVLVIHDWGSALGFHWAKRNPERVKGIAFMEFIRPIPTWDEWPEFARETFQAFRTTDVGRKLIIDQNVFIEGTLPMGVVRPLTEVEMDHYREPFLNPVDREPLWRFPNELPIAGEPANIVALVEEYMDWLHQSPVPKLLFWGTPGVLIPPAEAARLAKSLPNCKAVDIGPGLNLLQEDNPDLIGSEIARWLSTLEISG
Protocol: as §3, §4, §5

[4] = target: T2, Htt-110Q-Halo (Homo sapiens, UniProt P42858); test: Two-color imaging of Htt-110Q-Halo in HEK293T cells; type: cell-based
T2 construct: using the Huntingtin exon 1 protein (Htt) with expansion of a polyglutamine tract within its N-terminal domain; expressed in transfected cells; host or cells: HEK293T
T2 sequence (P42858 with tags, fused parts or gaps): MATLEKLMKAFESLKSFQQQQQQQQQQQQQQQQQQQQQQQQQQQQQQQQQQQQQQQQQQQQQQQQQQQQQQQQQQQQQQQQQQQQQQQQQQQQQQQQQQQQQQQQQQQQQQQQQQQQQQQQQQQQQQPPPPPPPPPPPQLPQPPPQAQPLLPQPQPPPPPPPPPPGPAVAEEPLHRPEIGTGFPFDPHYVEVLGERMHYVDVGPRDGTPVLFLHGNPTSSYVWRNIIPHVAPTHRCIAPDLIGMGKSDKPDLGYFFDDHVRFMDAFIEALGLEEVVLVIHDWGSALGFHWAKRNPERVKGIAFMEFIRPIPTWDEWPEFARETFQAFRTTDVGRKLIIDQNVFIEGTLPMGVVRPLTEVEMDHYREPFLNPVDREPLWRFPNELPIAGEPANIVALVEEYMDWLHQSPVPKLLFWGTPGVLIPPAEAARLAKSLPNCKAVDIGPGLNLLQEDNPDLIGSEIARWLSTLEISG
Excerpt: as §1, §2

[5] = target: T1, SOD1-A4V-Halo; test: In vitro heat-induced aggregation of SOD1-A4V-Halo conjugates; type: biochemical
Excerpt: as §1
Target sequence in this assay (P00441 with tags, fused parts or gaps A5V): as the sequence (P00441 with tags, fused parts or gaps A5V limits assumed) above
The inventors installed Halo-tag reactive warhead to 2, resulting in 5.

[6] = 4 with misfolded oligomers, 5 with insoluble aggregates of SOD1-A4V-Halo

CN(C)c1ccc(/C=C2N=C(/C=C/c3ccc(N(CCO)CCO)cc3)N(CC(=O)N[C@H]3CC[C@H](C(=O)NCCOCCOCCCCCCCl)CC3)C\2=O)cc1 [Compound 4, (1r,4r)-4-(2-((Z)-2-((E)-4-(bis(2-hydroxyethyl)amino)styryl)-4-(4-(dimethylamino)benzylidene)-5-oxo-4,5-dihydro-1H-imidazol-1-yl)acetamido)-N-(2-(2-((6-chlorohexyl)oxy)ethoxy)ethyl)cyclohexanecarboxamide]
fluorescence of perinuclear SOD1 A4V-Halo granules [1]: only exhibited red fluorescence from 4
fluorescence in cells co-expressing Halo-Tag and SOD1-V31A-GFP ([2]; NaAsO2 stressor 50 μM, 18 h, 37° C.): turn-on fluorescence was not observed
fluorescence in cells expressing Halo-Tag alone under stress ([2]; NaAsO2 stressor, Halo-4 conjugate): remained dark in stressed cells; also recorded: fluorescence was not observed
fluorescence of SOD1(V31A)-Halo labeled cells before and after stress [3]: dark before stress but exhibited both diffuse and punctate fluorescent structures in stressed cells
fluorescence of Htt-110Q-Halo inclusions [4]: exhibit fluorescence from both 4 and 5
Em [5, 6]: 600 nm
Ex [5, 6]: 530 nm
kinetics of fluorescence increase versus turbidity ([5]; SOD1-A4V-Halo conjugate): faster than that of turbidity
